The text below walks through data of patent US6649647B1, “Trioxane derivatives” (priority 1998, dated 2003).

Format in all cases: cell-based
In test [1] the test system is Rat 6 subclone of the immortalized F2408 embryo cell line (R6). Description: Screening for cytotoxicity, cell count by Coulter Counter, R6 cells. The conditions noted are these: for LD50 (Day 3) R6: day 3 after addition; for LD50 (Day 6) R6: day 6 after addition. The protocol:
(§1) Compounds of the invention were screened against Rat 6 subclone of the immortalized F2408 embryo cell line, and Rat 6 (R6T24) cells transfected and transformed by a c-H-ras oncogene. The screening involved placing the R6 and R6T24 cell lines plated at 10^3 cells per well into a 12-well microtiter culture plate for 24 hours. The compounds were added at final concentrations from 0.1-100 μM, and cells were trypsized and counted by Coulter Counter at day 3 and day 6 after the addition. Untreated cells were assigned a survival value of 100%.

The subject of test [2] is Rat 6 (R6T24) cells transfected and transformed by a c-H-ras oncogene. Description: Screening for cytotoxicity, cell count by Coulter Counter, R6T24 cells. The conditions noted are these: R6T24 cell line; for LD50 (Day 3) R6T24: day 3 after addition; for LD50 (Day 6) R6T24: day 6 after addition. The method, then: as §1
Another test concerns DNA within the cell. In words: DNA comet assay. The conditions noted are these: cells after 3 or 6 day treatment. From the text: In this technique, cells are embedded in agarose gel on a frosted slide after 3 or 6 day treatment, the cells are then lysed and submitted to electrophoresis. The DNA was stained after electrophoresis by ethidium bromide and images of the DNA “comets” were obtained by using an image analysis software package.

Test [3] relates to human colon cancer cell line SW 480. Description: Growth inhibition assay (MTT), SW 480. The note with it: Table VI, 6 days incubation. The method, then: (§2) As another example of evaluation of cytotoxicity, cancer cell lines were also used for a growth inhibition assay. The human colon cancer cell lines SW 480 and HT 29 and the murine melanoma cell line B16F10 were used. […] After confluent growth, the cells were trypsinated and resuspended in RPMI plus 10% FCS to a cell concentration of 50000 cells per ml in case of colon cancer cell lines and 20000 in case of B16F10. 100 μl of this cell suspension were transferred in each well of a 96 well microtiter plate and incubated for 1 day at 37° C. in a CO2-incubator. Subsequently, further 100 μl RPMI medium and 1 μl of a DMSO solution, containing the artemisinin derivatives were added. The growth inhibition was estimated after 6 days incubation at 36° C. using the MTT assay.
(§3) 25 μl MTT solution (3-(4,5-dimethylthiazol-2-yl)-2,5-diphenyltetrazolium-bromid) of a starting concentration of 5 mg/ml H2O were added and incubated at 37° C. for 5 h. Subsequently, 100 μl iso-propanol per well were added. After 15 min incubation 100 μl H2O were added. After 30 min shaking, the extinction was measured at 595 nm using a ELISA-Multiplate Reader.

In test [4] the test system is human colon cancer cell line HT 29. In words: Growth inhibition assay (MTT), HT 29. The note with it: Table VI, 6 days incubation. The protocol:
as §2, §3

In test [5] the test system is murine melanoma cell line B16F10. In words: Growth inhibition assay (MTT), B16F10. The conditions noted are these: Table VI, 6 days incubation. The method, then: as §2, §3

With “10α and β-[(2′-naphthylmethyl)oxy]dihydroartemisinin [Example 13]”, in test [1] (Table V), the “LD50 (Day 3) R6” value came to 0.14 µM and the “LD50 (Day 6) R6” value came out at 0.037 µM. Further, in test [2] (Table V), the “LD50 (Day 3) R6T24” value is 0.12 µM and the “LD50 (Day 6) R6T24” value worked out at 0.02 µM. Also, the “DNA damage in the DNA comet assay” value with DNA within the cell is listed as “strong DNA damage”.

On to “10α and β-[(2′-naphthylmethyl)oxy]dihydroartemisinin [Example 13α]”, for which, in test [1] (Table VA), the “LD50 (Day 3) R6” value was determined as 0.14 µM and the “LD50 (Day 6) R6” value is 0.037 µM. In test [2] (Table VA), the “LD50 (Day 3) R6T24” value is 0.12 µM and the “LD50 (Day 6) R6T24” value was 0.02 µM. Also, in test [3], the “LD50 SW 480” value worked out at 200 nM. The “LD50 HT 29” value in test [4] was 500 nM. Besides, the “LD50 B16F18” value in test [5] is given as 300 nM.

Consider `CC1CCC2[C@@H](C)C(O)OC3O[C@]4(C)CCC1C32OO4` (stereo partly drawn) [Dihydroartemisinin, dihydroartemisinin, reference compound], for which, in test [1] (Table V), the “LD50 (Day 3) R6” value was 1.64 µM and the “LD50 (Day 6) R6” value was 0.86 µM. In test [1] (Table VA), the “LD50 (Day 3) R6” value came to 1.64 µM and the “LD50 (Day 6) R6” value was determined as 0.86 µM. For the same molecule, in test [2] (Table V), the “LD50 (Day 3) R6T24” value was 2.22 µM and the “LD50 (Day 6) R6T24” value came to 0.24 µM. Besides, in test [2] (Table VA), the “LD50 (Day 3) R6T24” value is 2.22 µM and the “LD50 (Day 6) R6T24” value stood at 0.24 µM. Moreover, the “binding to DNA (DNA comet assay technique)” value in the test with DNA within the cell is listed as “does not bind to DNA”.

In the case of `CC1CCC2C(C)C(c3ccccc3)OC3OC4(C)CCC1C32OO4` (stereo not drawn) [Example 2, 10β-(phenyl)dihydroartemisinin], in test [1] (Table V), the “LD50 (Day 3) R6” value is 0.61 µM and the “LD50 (Day 6) R6” value came to 0.475 µM. In test [1] (Table VA), the “LD50 (Day 3) R6” value turned out to be 0.61 µM and the “LD50 (Day 6) R6” value is 0.475 µM. For the same molecule, in test [2] (Table V), the “LD50 (Day 3) R6T24” value came to 3.05 µM and the “LD50 (Day 6) R6T24” value was 0.54 µM. In test [2] (Table VA), the “LD50 (Day 3) R6T24” value worked out at 3.05 µM and the “LD50 (Day 6) R6T24” value stood at 0.54 µM. For the same molecule, the “LD50 SW 480” value in test [3] was 300 nM. Besides, the “LD50 HT 29” value in test [4] is reported as 800 nM. For the same molecule, the “LD50 B16F18” value in test [5] worked out at 500 nM.

Turning to `CC1CCC2C(C)C(OCC(F)(F)F)OC3OC4(C)CCC1C32OO4` (stereo not drawn) [Example 11, 10β-[(2′,2′,2′-trifluoroethyl)oxy]-dihydroartemisinin], the “LD50 (Day 3) R6” value in test [1] (Table V) and in test [1] (Table VA) was 1.56 µM in each case. In addition, the “LD50 (Day 6) R6” value in test [1] (Table V) and in test [1] (Table VA) was 0.87 µM each time. Moreover, the “LD50 (Day 3) R6T24” value in test [2] (Table V) and in test [2] (Table VA) was 3.31 µM in each case. Also, the “LD50 (Day 6) R6T24” value in test [2] (Table V) and in test [2] (Table VA) was 0.39 µM each time. The “LD50 SW 480” value in test [3] was 500 nM. The “LD50 HT 29” value in test [4] is on record as 1500 nM. The “LD50 B16F18” value in test [5] came out at 500 nM.

For `C[C@@H]1CC[C@H]2[C@@H](C)C(=O)N(Cc3ccccc3F)[C@@H]3O[C@@]4(C)CC[C@@H]1[C@@]23OO4` [Example 15, 11-aza-N-(2-fluorobenzyl)artemisinin], in test [1] (Table V), the “LD50 (Day 3) R6” value is 22.70 µM and the “LD50 (Day 6) R6” value is greater than 50.00 µM. In test [1] (Table VA), the “LD50 (Day 3) R6” value is greater than 50 µM and the “LD50 (Day 6) R6” value is greater than 50 µM. Moreover, in test [2] (Table V), the “LD50 (Day 3) R6T24” value is greater than 50.00 µM and the “LD50 (Day 6) R6T24” value stood at 1.69 µM. For the same molecule, in test [2] (Table VA), the “LD50 (Day 3) R6T24” value amounted to 22.7 µM and the “LD50 (Day 6) R6T24” value was 1.69 µM. The “LD50 SW 480” value in test [3] is reported as 200 nM. In addition, the “LD50 HT 29” value in test [4] is recorded as 1500 nM. Besides, the “LD50 B16F18” value in test [5] was found to be 300 nM.

In the case of `COc1ccccc1C1O[C@@H]2O[C@@]3(C)CC[C@H]4[C@H](C)CC[C@@H]([C@H]1C)[C@@]24OO3` (stereo partly drawn) [Example 29], the “LD50 SW 480” value in test [3] is reported as greater than 10000 nM. Besides, the “LD50 HT 29” value in test [4] is on record as greater than 10000 nM. Moreover, in test [5], the “LD50 B16F18” value is reported as greater than 10000 nM.

As for `C[C@@H]1CC[C@H]2[C@@H](C)C(Nc3ccccc3)O[C@@H]3O[C@@]4(C)CC[C@@H]1[C@]32OO4` (stereo partly drawn) [Example 30], in test [1] (Table V), the “LD50 (Day 3) R6” value was 0.31 µM and the “LD50 (Day 6) R6” value was found to be 0.26 µM. For the same molecule, in test [1] (Table VA), the “LD50 (Day 3) R6” value amounted to 0.31 µM and the “LD50 (Day 6) R6” value amounted to 0.26 µM. In test [2] (Table V), the “LD50 (Day 3) R6T24” value was 0.24 µM and the “LD50 (Day 6) R6T24” value was 0.26 µM. In addition, in test [2] (Table VA), the “LD50 (Day 3) R6T24” value came out at 0.24 µM and the “LD50 (Day 6) R6T24” value turned out to be 0.26 µM. In test [3], the “LD50 SW 480” value is 100 nM. In addition, in test [4], the “LD50 HT 29” value is reported as 600 nM. For the same molecule, the “LD50 B16F18” value in test [5] stood at 400 nM.

With `C[C@@H]1CC[C@H]2[C@@H](C)C(Nc3ccc(Br)cc3)O[C@@H]3O[C@@]4(C)CC[C@@H]1[C@]32OO4` (stereo partly drawn) [Example 33], the “LD50 SW 480” value in test [3] is recorded as 60 nM. Moreover, the “LD50 HT 29” value in test [4] is 500 nM. Further, in test [5], the “LD50 B16F18” value is reported as 200 nM.

Take `C[C@@H]1CC[C@H]2[C@@H](C)C(Nc3ccc(I)cc3)O[C@@H]3O[C@@]4(C)CC[C@@H]1[C@]32OO4` (stereo partly drawn) [Example 34]: the “LD50 SW 480” value in test [3] was determined as 100 nM. In test [4], the “LD50 HT 29” value was found to be 500 nM. For the same molecule, the “LD50 B16F18” value in test [5] came to 150 nM.

Consider `C[C@@H]1CC[C@H]2[C@@H](C)C(NCc3ccccc3)O[C@@H]3O[C@@]4(C)CC[C@@H]1[C@]32OO4` (stereo partly drawn) [Example 36], for which the “LD50 SW 480” value in test [3] came to 60 nM. In addition, in test [4], the “LD50 HT 29” value stood at 400 nM. Besides, the “LD50 B16F18” value in test [5] is reported as 50 nM.

Regarding `C[C@@H]1CC[C@H]2[C@@H](C)C(c3cc4ccccc4c4ccccc34)O[C@@H]3O[C@@]4(C)CC[C@@H]1[C@]32OO4` (stereo partly drawn) [Example 56], in test [1] (Table VA), the “LD50 (Day 3) R6” value amounted to 0.38 µM and the “LD50 (Day 6) R6” value was determined as 0.26 µM. In test [2] (Table VA), the “LD50 (Day 3) R6T24” value worked out at 0.24 µM and the “LD50 (Day 6) R6T24” value came to 0.21 µM. The “LD50 SW 480” value in test [3] worked out at 200 nM. Moreover, the “LD50 HT 29” value in test [4] came out at 300 nM. Also, in test [5], the “LD50 B16F18” value is listed as 300 nM.

Turning to `COc1cc(OC)c(C2O[C@@H]3O[C@@]4(C)CC[C@H]5[C@H](C)CC[C@@H]([C@H]2C)[C@@]35OO4)c(OC)c1` (stereo partly drawn) [Example 59], the “LD50 SW 480” value in test [3] is 1500 nM. For the same molecule, the “LD50 HT 29” value in test [4] is 1500 nM. In addition, the “LD50 B16F18” value in test [5] was 1500 nM.

As to `Cc1cc(C)c(C2O[C@@H]3O[C@@]4(C)CC[C@H]5[C@H](C)CC[C@@H]([C@H]2C)[C@@]35OO4)c(C)c1` (stereo partly drawn) [Example 60], in test [3], the “LD50 SW 480” value stood at 150 nM. Also, the “LD50 HT 29” value in test [4] is recorded as 300 nM. Moreover, the “LD50 B16F18” value in test [5] is recorded as 250 nM.

Regarding `Cc1cc(C)c(C2O[C@@H]3O[C@@]4(C)CC[C@H]5[C@H](C)CC[C@@H]([C@H]2C)[C@@]35OO4)cc1C` (stereo partly drawn) [Example 61], in test [3], the “LD50 SW 480” value was 150 nM. For the same molecule, the “LD50 HT 29” value in test [4] is reported as 300 nM. Moreover, in test [5], the “LD50 B16F18” value stood at 250 nM.

With `CC1CCC2C(C)C(OCc3cccc(F)c3)OC3OC4(C)CCC1C32OO4` (stereo not drawn) [Example 78], in test [3], the “LD50 SW 480” value came out at 250 nM. For the same molecule, the “LD50 HT 29” value in test [4] is listed as 1500 nM. Besides, the “LD50 B16F18” value in test [5] amounted to 200 nM.

On to `CC1CCC2C(C)C(OCc3ccc(F)cc3)OC3OC4(C)CCC1C32OO4` (stereo not drawn) [Example 79], for which, in test [3], the “LD50 SW 480” value came out at 200 nM. Moreover, the “LD50 HT 29” value in test [4] is given as 1500 nM. In addition, in test [5], the “LD50 B16F18” value is 200 nM.
